System: uterus of infant rats
Experiment: Uterus growth test on infant rats (estrogenic action)
Format: in vivo, rat
Settings: for Epithelial Height % E2 / Uterus Weight % E2: 3 days, infant rats
Excerpt: The influence of the compounds according to the invention on the uterus was examined in the uterus growth test (estrogenic action) and in the anti-uterus growth test (antiestrogenic action), both performed on infant rats.
In infant animals, both uterus and vagina show one of the estrogenic activity-dependent weight increases in their treatment with an estrogenically active substance. In the uterus, under estrogenic action, moreover, it results in a proliferation and height increase of the luminal epithelium.
Immature, normal rats (body weight 40-50 g) receive the substance s.c. over 3 days (d1-d3). On day 4 (d4), the animals are sacrificed with CO2. The uteri are prepared outside and weighed. A piece of the uterus, preferably a uterine horn, is set in formaldehyde for the histological evaluation and embedded in paraffin. The stimulation of the organ weights (relative to mg/100 g of body weight) and the epithelial height are indicated in percentage stimulation in comparison to the reference compound 17β-estradiol. (Substitution dose E2 0.3 μg/animal).

C[C@]12C[C@H](c3ccc(OCCCCCS(=O)(=O)Cc4ccccn4)cc3)[C@@H]3c4ccc(O)cc4CC[C@H]3[C@]13CC[C@@]2(O)CC3 [Compound A]
Epithelial Height % E2 (0.01 mg/kg s.c.): 6 % E2
Uterus Weight % E2 (0.01 mg/kg s.c.): 2 % E2
Epithelial Height % E2 (0.1 mg/kg s.c.): -16 % E2
Uterus Weight % E2 (0.1 mg/kg s.c.): 0 % E2
Epithelial Height % E2 (1 mg/kg s.c.): -8 % E2
Uterus Weight % E2 (1 mg/kg s.c.): -7 % E2
Epithelial Height % E2 (10 mg/kg s.c.): -22 % E2
Uterus Weight % E2 (10 mg/kg s.c.): -15 % E2
estrogenic action in the uterus (in words) (s.c., uterus growth test): without any estrogenic action in the uterus
